From ChEMBL document CHEMBL1201862, “PubChem BioAssay data set” (2004)
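In this assay, cells in 96-well plates receive the compound at five concentrations for 48 hours. Endpoints are linearly interpolated between the surrounding concentrations. Abbreviation: GI50, concentration required for 50% inhibition of growth.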 Active and inactive are the calls of the source. No stated cut-off is given here; in the data, active = GI50 up to about 1.1 µM and inactive = higher.

Legend:
Test in all cases: NCI-60 cell line screen, 48 h
ACHN = tested on: ACHN
CAKI-1 = tested on: CAKI-1
COLO 205 = tested on: COLO 205
EKVX = tested on: EKVX
HCT-15 = tested on: HCT-15
KM-20L2 = tested on: KM-20L2
LXFL 529 = tested on: LXFL 529
MCF7 = tested on: MCF7
MDA-N = tested on: MDA-N
NCI-H23 = tested on: NCI-H23
NCI-H522 = tested on: NCI-H522
NCI/ADR-RES = tested on: NCI/ADR-RES
OVCAR-5 = tested on: OVCAR-5
PC-3 = tested on: PC-3
RPMI-8226 = tested on: RPMI-8226
SK-MEL-5 = tested on: SK-MEL-5
SN12C = tested on: SN12C
SR = tested on: SR
T47D = tested on: T47D
UACC-62 = tested on: UACC-62

Row | SMILES | GI50 (ACHN) | GI50 (CAKI-1) | GI50 (COLO 205) | GI50 (EKVX) | GI50 (HCT-15) | GI50 (KM-20L2) | GI50 (LXFL 529) | GI50 (MCF7) | GI50 (MDA-N) | GI50 (NCI-H23) | GI50 (NCI-H522) | GI50 (NCI/ADR-RES) | GI50 (OVCAR-5) | GI50 (PC-3) | GI50 (RPMI-8226) | GI50 (SK-MEL-5) | GI50 (SN12C) | GI50 (SR) | GI50 (T47D) | GI50 (UACC-62)
1 | CN1C(c2ccccc2)CC(=NOCc2ccccc2)CC1c1ccccc1 (stereo not given) | 46.1 µM (inactive) | 55 µM (inactive) | 50.6 µM (inactive) | 41.3 µM (inactive) | 23.2 µM | > 80.2 µM (inactive) | 16.8 µM (inactive) | 18.6 µM (inactive) | 23.3 µM (inactive) | 28.2 µM (inactive) | 21.8 µM (inactive) | 19.3 µM (inactive) | 70.8 µM (inactive) | 24.7 µM (inactive) | 37.2 µM (inactive) | 33.7 µM (inactive) | 44.6 µM (inactive) | 13.6 µM (inactive) | 17.7 µM (inactive) | 52.4 µM (inactive)
2 | O=C(OCN1C(=O)C2C3C=CC(C2C1=O)C1C2C(=O)N(COC(=O)C4CCCN4)C(=O)C2C31)C1CCCN1 (stereo not given) | > 50.5 µM (inactive) | > 86.9 µM (inactive) | 59.8 µM (inactive) | > 100 µM (inactive) | 25 µM | 64.1 µM (inactive) | 78.7 µM (inactive) |  |  | > 100 µM (inactive) | 78.3 µM (inactive) |  | > 100 µM (inactive) |  | 24.8 µM (inactive) | 62.5 µM (inactive) | > 72.3 µM (inactive) | < 0.01 µM (active) |  | > 76.7 µM (inactive)
3 | CC1(C)C=N[N+]2(C)C3C=CC(CC3)C12 (stereo not given) | > 100 µM (inactive) | > 100 µM (inactive) | > 100 µM (inactive) | > 100 µM (inactive) | > 100 µM | > 100 µM (inactive) | > 100 µM (inactive) |  |  | > 100 µM (inactive) | > 100 µM (inactive) |  | > 100 µM (inactive) |  | > 100 µM (inactive) | > 100 µM (inactive) | > 100 µM (inactive) | > 100 µM (inactive) |  | > 100 µM (inactive)
